Measured values: paper PMC11357160, “Gouregine, an α-Gem-Dimethyltetradehydrocularine Alkaloid, and Other Aporphinoid Alkaloids from the Bark of Guatteria olivacea (Annonaceae) and Their In Vitro Cytotoxic Activities” (Molecules, 2024)
Several values for one entry are separate records, joined by “and”; a condition that tells them apart may be missing. Identical values can stand only once. Counter-ions that a name gives are not always drawn.

Columns and labels:
[1] = test system: MRC-5 (human lung fibroblast); assay: Alamar blue cytotoxicity assay, 72 h, noncancerous MRC-5; type: cell-based; details: MRC5, MRC-5 noncancerous cells, 72 h incubation
Procedure: (§1) The in vitro cytotoxic activities of the isolated compounds 1–9 were evaluated against the cancer cell lines HepG2 (human hepatocellular carcinoma), KG-1a (human myeloid leukemia), and HCT116 (human colon carcinoma), and the noncancerous cell line MRC-5 (human lung fibroblast) via the Alamar blue assay after 72 h of incubation.
(§2) The HepG2 (human hepatocellular carcinoma), KG-1a (human myeloid leukemia), HCT116 (human colon carcinoma), and MRC-5 (human lung fibroblast) cell lines were obtained from the American Type Culture Collection (ATCC, Manassas, VA, USA) and were cultured as recommended by the American Type Culture Collection (ATCC) animal culture guide. All the cell lines were tested for mycoplasma via a mycoplasma stain kit (Sigma-Aldrich) to validate the use of cells that were free from contamination.
(§3) For the cytotoxicity assay, cell viability was quantified via the Alamar blue method, as previously described. For all the experiments, the cells were plated in 96-well plates. The chemical constituents evaluated varied in purity between 90% and 99.8%, which was determined on the basis of the relative integrals of the signals of the constituents in relation to the signals of the impurities contained. Most of the constituents had purities greater than 95%, except for constituents 4 and 5, which had purities of approximately 90%. The chemical constituents were dissolved in dimethyl sulfoxide (DMSO, Vetec Química Fina Ltda., Duque de Caxias, RJ, Brazil), added to each well, and incubated for 72 h. […] At the end of the treatment, 20 µL of a stock solution (0.312 mg/mL) of resazurin (Sigma-Aldrich Co.) was added to each well. The absorbances at 570 nm and 600 nm were measured via a SpectraMax 190 Microplate Reader (Molecular Devices, Sunnyvale, CA, USA). The half-inhibitory concentration (IC50) was obtained via nonlinear regression with 95% confidence intervals (CIs 95%) via the software GraphPad Prism 8 (Intuitive Software for Science; San Diego, CA, USA).

[2] = test system: HepG2 (human hepatocellular carcinoma); assay: Alamar blue cytotoxicity assay, 72 h, HepG2; type: cell-based; details: for IC50: Homo sapiens, HepG2, Alamar blue, 72 h incubation
Procedure: as §1, §2, §3

[3] = test system: HCT116 (human colon carcinoma); assay: Alamar blue cytotoxicity assay, 72 h, HCT116; type: cell-based; details: for IC50: Homo sapiens, HCT-116, HCT116, Alamar blue, 72 h incubation; for Selectivity index (SI): SI = IC50 [noncancerous cells MRC-5]/IC50 [HCT116]
Procedure: as §1, §2, §3

[4] = test system: CAOV-3 ovarian cancer cells; design: method as in PMID 25792804; details: CAOV-3 cells, mitochondrial pathway, activation of caspase-3 and caspase-9; cited from earlier work
[5] = design: method as in PMID 25065531, PMID 33290909, PMID 15540220, PMID 12951096, PMID 35597316; details: cited from earlier work
HL-60 leukemia cells = test system: HL-60 leukemia cells; design: method as in ref 47 Kim et al.; details: HL-60 cells, via p38 MAPK pathway; ref 47 Kim et al.; cited from earlier work
cancer cells = test system: cancer cells; design: method as in PMID 25065531, PMID 33290909, PMID 15540220, PMID 12951096, PMID 35597316; details: cited from earlier work
[6] = test system: Akt activation in anaplastic human thyroid cancer cells; design: method as in PMID 38139812; details: cited from earlier work
[7] = test system: human colon cancer cell lines and cancer stem cells (Wnt/β-catenin); design: method as in PMID 37656375; details: through the inhibition of Wnt/β-catenin; cited from earlier work
[8] = test system: KG-1a (human myeloid leukemia); assay: Alamar blue cytotoxicity assay, 72 h, KG-1a; type: cell-based; details: 72 h incubation
Procedure: as §2
as §3, with “Most of the constituents had purities greater than 95%, except for constituents 4 and 5, which had purities of approximately 90%.” left out, “The half-inhibitory concentration (IC50) was obtained via nonlinear regression with 95% confidence intervals (CIs 95%) via the software GraphPad Prism 8 (Intuitive Software for Science; San Diego, CA, USA).” left out

human cancer cells = test system: human cancer cells; design: method as in ref 41 = [41]; 41. Osorio D.E.J. Montoya P.G.L. Muñoz D.K. Arango A.G.J. Actividad antiplasmodial de alcaloides aporfínicos de Rollinia pittieri Y Pseudomalmea boyacana (Annonaceae) Vitae 2006 13 49 54; details: cited from earlier work
[9] = design: method as in ref 41 = [41]; 41. Osorio D.E.J. Montoya P.G.L. Muñoz D.K. Arango A.G.J. Actividad antiplasmodial de alcaloides aporfínicos de Rollinia pittieri Y Pseudomalmea boyacana (Annonaceae) Vitae 2006 13 49 54; details: cited from earlier work

| Structure (SMILES) | IC50 [1] | IC50 [2] | IC50 [3] | other results |
| --- | --- | --- | --- | --- |
| COc1c2c3c(c(OC)c1OC)-c1ccc(O)cc1C(C)(O)C3=NCC2 (stereo not drawn) [Guattouregidine (8), guattouregidine] | > 25 µg/mL and > 73.2 µM | > 25 µg/mL and > 73.2 µM | > 25 µg/mL and > 73.2 µM | – |
| O=C1c2ccccc2-c2c3c(cc4ccnc1c24)OCO3 [liriodenine] | – | – | – | apoptosis [4]: caused apoptosis |
| COc1c(O)c2c3c(c1OC)CCN[C@@H]3Cc1ccccc1-2 [Isopiline (1), isopiline] | > 25 µg/mL and > 84.1 µM | – | > 25 µg/mL and > 84.1 µM | – |
| COc1c2c3c(c(OC)c1OC)-c1ccccc1CC3NCC2 (stereo not drawn) [O-Methylisopiline (2), O-methylisopiline] | > 25 µg/mL and > 80.3 µM | – | > 25 µg/mL and > 80.3 µM | – |
| C=C[C@@]1(C)CC=C2C(CCC3[C@](C)(C(=O)O)CCC[C@@]23C)C1 (stereo partly drawn) [Acanthoic acid (7), acanthoic acid] | > 25 µg/mL and > 82.7 µM | 14.6 µg/mL and 48.4 µM | 21.2 µg/mL and 70.2 µM | anti-inflammatory activity [5]: anti-inflammatory activity; apoptotic cell death (HL-60 leukemia cells): causing apoptotic cell death; cytotoxicity to cancer cells (cancer cells): low cytotoxicity |
| COc1cc2ccnc3c2c(c1OC)-c1ccccc1C3=O [Lysicamine (6), lysicamine] | 17.2 µg/mL and 59.2 µM | – | 6.64 µg/mL and 22.8 µM | effect on Akt activation [6]: inhibit Akt activation; effect on colon cancer cell lines and cancer stem cells [7]: suppress human colon cancer cell lines and cancer stem cells; Selectivity index (SI) [3]: 2.60 |
| COc1c(O)c2c3c(nccc3c1OC)C(C)(C)c1cc(O)ccc1O2 [Gouregine (9), gouregine] | > 25 µg/mL and > 70.7 µM | > 25 µg/mL and > 70.7 µM | – | IC50 [8]: > 25 µg/mL and > 70.7 µM |
| COc1c(O)c2c3c(c1OC)CCN=C3C(C)(C)c1cc(O)ccc1-2 [Dihydromelosmine (5), dihydromelosmine] | > 25 µg/mL and > 73.7 µM | > 25 µg/mL and > 73.7 µM | > 25 µg/mL and > 73.7 µM | – |
| COc1cccc2c1C(=O)c1c(O)c3c(c(O)c1C2=O)C[C@@](O)(C(=O)CO)C[C@@H]3O[C@H]1C[C@H](N)[C@H](O)[C@H](C)O1 [Doxorubicin, doxorubicin hydrochloride, reference compound] | 1.42 µg/mL and 2.61 µM | 0.04 µg/mL and 70 nM | 0.2 µg/mL and 360 nM | Selectivity index (SI) ([2]; SI = IC50 [noncancerous cells MRC-5]/IC50 [HepG2]): 35.50; IC50 [8]: 0.22 µg/mL and 400 nM; Selectivity index (SI) [3]: 7.10 |
| COc1c(O)c2c3c(nccc3c1OC)C(C)(C)c1cc(O)ccc1-2 [Melosmine (3), melosmine] | 23.7 µg/mL and 70.3 µM | – | 16.8 µg/mL and 49.7 µM | cytotoxicity to human cancer cells (human cancer cells): low cytotoxicity; antimalarial activity [9]: antimalarial agent; Selectivity index (SI) [3]: 1.41 |
| COc1c2c3c(c(OC)c1OC)-c1ccc(O)cc1C(C)(C)C3=NCC2 [9-hydroxyiguattescine (4), 9-hydroxyiguattescine] | > 25 µg/mL and > 70.7 µM | > 25 µg/mL and > 70.7 µM | > 25 µg/mL and > 70.7 µM | – |
